Test results from patent publication US20030013660A1, “Dioxolane analogs for improved inter-cellular delivery” (Shire BioChem Inc., priority 2000, published 2003).
pIC50: −log10 of the molar value. Where two headings read alike, the source gives them in different places.

Key:
Test in all cases: 3H-TdR incorporation at 72 hr (24 hr drug exposure, wash, 48 hr)
H-460 = format: cell-based, Human; details: Homo sapiens, NCI-H460, read-out: IC50 in μM (3H-TdR incorporation at 72 hr) H-460 24 h, H-460 Human Lung Carcinoma, 72 hr assay
Method: (§1) Exposition of 24 hr to drug, wash, incubated for another 48 hr (total of 72 hr assay)
(§2) (3H-Thymidine Incorporation Assay)

MCF-7 = format: cell-based, Human; details: Homo sapiens, MCF7, read-out: IC50 in μM (3H-TdR incorporation at 72 hr) MCF-7 24 h, MCF-7 Human Breast Carcinoma, 72 hr assay
Method: as §1, §2

SF-268 = format: cell-based, Human; details: for IC50: Homo sapiens, SF-268, read-out: IC50 in μM (3H-TdR incorporation at 72 hr) SF-268 24 h, SF-268 Human Central Nervous System Tumor, 24 h drug exposure, 72 hr assay
Method: as §1, §2

CCRF-CEM = format: cell-based; details: Homo sapiens, CCRF-CEM, read-out: IC50 in μM (3H-TdR incorporation at 72 hr) CCRF-CEM 24 h, CCRF-CEM T-cell Leukemia, 72 hr assay
Method: as §1, §2

CEM/dCK- = format: cell-based; details: for IC50: Homo sapiens, CCRF-CEM, read-out: IC50 in μM (3H-TdR incorporation at 72 hr) CEM/dCK- 24 h, CCRF-CEM deoxycytidine kinase-deficient, 24 h drug exposure, 72 hr assay; for Factor* (Resistance Factor = Ratio of dCK- on Wild-type CCRF-CEM): ratio of IC50 CEM/dCK- to IC50 CCRF-CEM
Method: as §1, §2

IC50 (H-460) | IC50 (MCF-7) | IC50 (SF-268) | IC50 (CCRF-CEM) | IC50 (CEM/dCK-) | SMILES | Factor* (Resistance Factor = Ratio of dCK- on Wild-type CCRF-CEM) (CEM/dCK-) | pIC50 (SF-268)
11 µM | 21 µM | 38 µM | 9 µM | > 100 µM | COc1ccc(C(=O)Nc2ccn([C@@H]3CO[C@H](COC(=O)c4ccc(OC)cc4)O3)c(=O)n2)cc1 [Compound 174, 4-METHOXY-BENZOIC ACID 4-[4-(4-METHOXY- BENZOYLAMINO)-2-OXO-2H- PYRIMIDIN-1-YL]- [1,3]DIOXOLAN-2- YLMETHYL ESTER] | >11 | –
6.3 µM | 3.1 µM | 32 µM | 3.5 µM | > 100 µM | COc1ccc(C(=O)Nc2ccn([C@@H]3CO[C@H](CO)O3)c(=O)n2)cc1 [Compound 175, N-[1-(2-HYDROXYMETHYL- [1,3]DIOXOLAN-4-YL)-2- OXO-1,2-DIHYDRO- PYRIMIDIN-4-YL]-4- METHOXY-BENZAMIDE] | >29 | –
0.19 µM | 0.22 µM | 0.92 µM | 0.095 µM | > 100 µM | COC(OC)(OC)OC[C@H]1OC[C@@H](n2ccc(N)nc2=O)O1 [Compound 177, 4-AMINO-1-(2- TRIMETHOXYMETHOXYMETHYL -[1,3]DIOXOLAN-4-YL)- 1H-PYRIMIDIN-2-ONE] | >1052 | –
88 µM | 5.8 µM | 41 µM | 25 µM | > 100 µM | CCOC[C@H]1OC[C@@H](n2ccc(N)nc2=O)O1 [Compound 178, (S,S)-4-AMINO-1-(2′- ETHOXYMETHYL- [1,3]DIOXOLAN-4′-YL)- 1H-PYRIMIDIN-2-ONE] | >4 | –
1.7 µM | 2.8 µM | 0.56 µM | 2.4 µM | > 100 µM | C=CCOC[C@H]1OC[C@@H](n2ccc(N)nc2=O)O1 [Compound 179, (S,S)-1-(2′- ALLYLOXYMETHYL- [1,3]DIOXOLAN-4′-YL)-4- AMINO-1H-PYRIMIDIN-2- ONE] | >42 | –
0.13 µM | 0.22 µM | 0.21 µM | 0.047 µM | > 100 µM | O=C(Nc1ccn([C@@H]2CO[C@H](CO)O2)c(=O)n1)OCc1ccc([N+](=O)[O-])cc1 [Compound 182, [1-(2-HYDROXYMETHYL- [1,3]DIOXOLAN-4-YL)-2- OXO-1,2-DIHYDRO- PYRIMIDIN-4-YL]- CARBAMIC ACID 4-NITRO- BENZYL ESTER] | >2100 | –
0.037 µM | 0.038 µM | 0.12 µM | 0.018 µM | 45 µM | Cl.Nc1ccn([C@@H]2CO[C@H](COC(=O)OCc3ccc([N+](=O)[O-])cc3)O2)c(=O)n1 [Compound 183, CARBONIC ACID 4-(4- AMINO-2-OXO-2H- PYRIMIDIN-1-YL)- [1,3]DIOXOLAN-2- YLMETHYL ESTER 4-NITRO- BENZYL ESTER HYDROCHLORIDE SALT] | 2,500 | –
0.94 µM | 0.92 µM | 1.1 µM | 0.81 µM | 40 µM | Nc1ccn([C@@H]2CO[C@H](COC3(c4ccccc4)OC4OC(COC(=O)c5ccccc5)C(OC(=O)c5ccccc5)C(OC(=O)c5ccccc5)C4O3)O2)c(=O)n1 (stereo partly drawn) [Compound 184, 3,4,6-TRI-O-BENZOYL- 1,2-O-(1-(4-AMINO-2- OXO-2H-PYRIMIDIN-1-YL)- [1,3]DIOXOLAN-2- YLMETHYLOXY)-BENZYL)- □^˜D-GLUCOPYRANOSe] | 49 | –
0.64 µM | 0.16 µM | 2 µM | 0.059 µM | > 100 µM | CC(C)(C)OC(=O)NCCCCCC(=O)Nc1ccn([C@@H]2CO[C@H](CO)O2)c(=O)n1 [Compound 193, {5-[1-(2-HYDROXYMETHYL- [1,3]DIOXOLAN-4-YL)-2- OXO-1,2-DIHYDRO- PYRIMIDIN-4- YLCARBAMOYL]-PENTYL}- CARBAMIC ACID TERT- BUTYL ESTER] | >1695 | –
1.1 µM | 1.9 µM | 1.5 µM | 0.064 µM | > 100 µM | COc1ccc(C(OC)(OC)OC[C@H]2OC[C@@H](n3ccc(N)nc3=O)O2)cc1 [Compound 195, 4-AMINO-1-{2- [DIMETHOXY-(4-METHOXY- PHENYL)-METHOXYMETHYL]- [1,3]DIOXOLAN-4-YL}- 1#H!-PYRIMIDIN-2-ONE] | >1563 | –
0.033 µM | 0.21 µM | 0.0078 µM | 0.0094 µM | > 100 µM | CCOC(OCC)(OCC)OC[C@H]1OC[C@@H](n2ccc(N)nc2=O)O1 [Compound 199, 4-Amino-1-(2-triethoxymethoxymethyl-[1,3]dioxolan-4-yl)-1H-pyrimidin-2-one] | >10638 | –
0.3 µM | 1.1 µM | 0.12 µM | 0.31 µM | 72 µM | COC(OC)(OC[C@H]1OC[C@@H](n2ccc(N)nc2=O)O1)c1ccc(C)cc1 [Compound 200, 4-AMINO-1-[2- (DIMETHOXY-#P!-TOLYL- METHOXYMETHYL)- [1,3]DIOXOLAN-4-YL]- 1#H!-PYRIMIDIN-2-ONE] | 232 | –
17 µM | 18 µM | 7.3 µM | 14 µM | > 100 µM | CCOC(=O)/C=C/OC[C@H]1OC[C@@H](n2ccc(N)nc2=O)O1 [Compound 201, 3-[4-(4-AMINO-2-OXO-2H- PYRIMIDIN-1-YL)- [1,3]DIOXOLAN-2-YL METHOXY]-ACRYLIC ACID ETHYL ESTER] | >7 | –
0.28 µM | 0.9 µM | 0.1 µM | 0.26 µM | > 100 µM | Nc1ccn([C@@H]2CO[C@H](COC(=S)Sc3ccccc3)O2)c(=O)n1 [Compound 205, DITHIOCARBONIC ACID O- [4-(4-AMINO-2-OXO-2H- PYRIMIDIN-1-YL)- [1,3]DIOXOLAN-2-YL METHYL] ESTER S-PHENYL ESTER] | >385 | –
0.012 µM | 0.056 µM | 0.043 µM | 0.009 µM | 80 µM | Nc1ccn([C@@H]2CO[C@H](COC(=O)c3ccccc3Cl)O2)c(=O)n1 [Compound 206, 2-CHLORO-BENZOIC ACID 4-(4-AMINO-2-OXO-2#H!- PYRIMIDIN-1-YL)- [1,3]DIOXOLAN-2-YL METHYL ESTER] | 8,889 | –
0.0034 µM | 0.029 µM | 0.042 µM | 0.0035 µM | > 100 µM | Nc1ccn([C@@H]2CO[C@H](COC(=O)c3ccccc3Cc3ccccc3)O2)c(=O)n1 [Compound 220, BIPHENYL-2-CARBOXYLIC ACID 4-(4-AMINO-2-OXO- 2H-PYRIMIDIN-1-YL)- [1,3]DIOXOLAN-2-YL METHYL ESTER] | >28571 | –
11 µM | 11 µM | 43 µM | 0.88 µM | > 100 µM | O=C(Nc1ccn([C@@H]2CO[C@H](CO)O2)c(=O)n1)C1(c2ccccc2)CCCCC1 [Compound 225, 1-PHENYL- CYCLOHEXANECARBOXYLIC ACID [1-(2- HYDROXYMETHYL- [1,3]DIOXOLAN-4-YL)-2- OXO-1,2-DIHYDRO- PYRIMIDIN-4-YL]-AMIDE] | >113 | –

SMILES | IC50 (H-460) | IC50 (MCF-7) | IC50 (SF-268) | IC50 (CCRF-CEM) | IC50 (CEM/dCK-) | Factor* (Resistance Factor = Ratio of dCK- on Wild-type CCRF-CEM) (CEM/dCK-) | pIC50 (SF-268)
O=c1nc(NS(=O)(=O)c2ccc([N+](=O)[O-])cc2[N+](=O)[O-])ccn1[C@@H]1CO[C@H](CO)O1 [Compound 188, N-[1-(2-HYDROXYMETHYL- [1,3]DIOXOLAN-4-YL)-2- OXO-1,2-DIHYDRO- […]-4-YL]-2,4- DINITRO- BENZENESULFONAMIDE] | 0.097 µM | 3 µM | – | 0.79 µM | > 100 µM | – | 5.62
CC(C)(C)OC(=O)NCCCCCC(=O)Nc1ccn([C@@H]2CO[C@H](COC(=O)CCCCCNC(=O)OC(C)(C)C)O2)c(=O)n1 [Compound 192, 6-TERT!- BUTOXYCARBONYLAMINO- HEXANOIC ACID 4-[4-(6- TERT- BUTOXYCARBONYLAMINO- HEXANOYLAMINO)-2-OXO- 2H-PYRIMIDIN-1-YL]- [1,3]DIOXOLAN-2-YL METHYL ESTER] | 0.29 µM | 0.0016 µM | 0.4 µM | 0.0084 µM | 48 µM | 5,714 | –
CC(C)(C)OC(=O)NCCCCCC(=O)OC[C@H]1OC[C@@H](n2ccc(N)nc2=O)O1 [Compound 194, 6-TERT!- BUTOXYCARBONYLAMINO- HEXANOIC ACID 4-(4- AMINO-2-OXO-2H- PYRIMIDIN-1-YL)- [1,3]DIOXOLAN-2- YLMETHYL ESTER] | 0.011 µM | 0.004 µM | 0.041 µM | 0.0024 µM | 10 µM | 4167 | –
